Laboratory results as given in the NIST ThermoML archive (doi:10.1021/je900615b).
± gives the expanded uncertainty stated by the source.

Conditions: Liquid, Hot wire method

CCOCC [diethyl ether]
Conditions | thermal conductivity [W/m/K]
314.33 K, 5100 kPa | 0.1201 ± 0.0025
314.44 K, 5300 kPa | 0.1205 ± 0.0025
314.55 K, 30100 kPa | 0.1357 ± 0.0028
314.6 K, 10000 kPa | 0.1231 ± 0.0025
314.95 K, 10100 kPa | 0.1236 ± 0.0025
314.95 K, 20100 kPa | 0.1291 ± 0.0026
314.95 K, 30100 kPa | 0.1361 ± 0.0028
315.01 K, 200 kPa | 0.1187 ± 0.0024
315.13 K, 200 kPa | 0.1182 ± 0.0024
315.21 K, 5200 kPa | 0.1202 ± 0.0025
315.39 K, 30100 kPa | 0.1356 ± 0.0028
315.5 K, 200 kPa | 0.1182 ± 0.0024
315.52 K, 10100 kPa | 0.1232 ± 0.0025
315.56 K, 20200 kPa | 0.1289 ± 0.0026
315.91 K, 20100 kPa | 0.1287 ± 0.0026
335.02 K, 5100 kPa | 0.1127 ± 0.0023
335.13 K, 20300 kPa | 0.1222 ± 0.0025
335.21 K, 5100 kPa | 0.1127 ± 0.0023
335.28 K, 200 kPa | 0.1093 ± 0.0022
335.3 K, 30200 kPa | 0.1275 ± 0.0026
335.33 K, 10200 kPa | 0.1159 ± 0.0024
335.33 K, 19900 kPa | 0.1217 ± 0.0025
335.63 K, 5200 kPa | 0.1126 ± 0.0023
335.71 K, 20400 kPa | 0.1224 ± 0.0025
335.72 K, 10100 kPa | 0.1162 ± 0.0024
335.72 K, 30000 kPa | 0.1271 ± 0.0026
335.78 K, 200 kPa | 0.1091 ± 0.0022
336.08 K, 200 kPa | 0.1092 ± 0.0022
336.13 K, 30200 kPa | 0.1269 ± 0.0026
336.17 K, 10100 kPa | 0.1159 ± 0.0024
354.59 K, 30000 kPa | 0.1208 ± 0.0025
354.75 K, 5000 kPa | 0.1044 ± 0.0021
355.05 K, 10000 kPa | 0.1084 ± 0.0022
355.05 K, 30000 kPa | 0.1206 ± 0.0025
355.08 K, 500 kPa | 0.1001 ± 0.0021
355.18 K, 20000 kPa | 0.115 ± 0.0024
355.32 K, 10100 kPa | 0.1082 ± 0.0022
355.37 K, 5000 kPa | 0.1048 ± 0.0022
355.39 K, 30000 kPa | 0.1204 ± 0.0025
355.52 K, 500 kPa | 0.1001 ± 0.0021
355.52 K, 20000 kPa | 0.1148 ± 0.0024
355.74 K, 5000 kPa | 0.1045 ± 0.0021
355.8 K, 10000 kPa | 0.1079 ± 0.0022
355.82 K, 500 kPa | 0.1002 ± 0.0021
356.03 K, 20000 kPa | 0.1147 ± 0.0023
374.62 K, 10000 kPa | 0.1004 ± 0.0021
374.7 K, 5200 kPa | 0.0974 ± 0.002
374.92 K, 30000 kPa | 0.1132 ± 0.0023
375.01 K, 29700 kPa | 0.1131 ± 0.0023
375.06 K, 10000 kPa | 0.1011 ± 0.0021
375.22 K, 20000 kPa | 0.1081 ± 0.0022
375.25 K, 5100 kPa | 0.0973 ± 0.002
375.4 K, 5000 kPa | 0.0973 ± 0.002
375.46 K, 10000 kPa | 0.1008 ± 0.0021
375.51 K, 29800 kPa | 0.1135 ± 0.0023
375.62 K, 20000 kPa | 0.1082 ± 0.0022
375.72 K, 700 kPa | 0.0926 ± 0.0019
376.18 K, 700 kPa | 0.0925 ± 0.0019
376.28 K, 20000 kPa | 0.1076 ± 0.0022
376.8 K, 700 kPa | 0.0923 ± 0.0019
